Measured values reported in PubChem BioAssay AID248 (DTP/NCI, 2004).
Values joined by “and” are separate entries in the source; they are usually repeats but may differ in a detail not shown here. Identical values can stand only once. Toxic doses and inconclusive results are not listed. No stated cut-off is given here; in the data, active means T/C of 150% or more; inactive means T/C below 125%.

System: L1210 leukemia ip in BDF1 mice, survival T/C
Assay: NCI In Vivo Anticancer Drug Screen. Data for tumor model L1210 Leukemia (intraperitoneal) in B6D2F1 (BDF1) mice
Details: endpoint: mean survival time, higher = longer survival
Procedure, shortened: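 Transplanted-tumor mice were given test agent; controls received vehicle only. Survival readings from the two groups were divided (treated over control).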

[1] = dose: 100.0 mg/kg/injection, schedule: Q01DX009 (ip), vehicle: saline with Tween-80
[2] = dose: 100.0 mg/kg/injection, schedule: Q04DX003 (ip), vehicle: saline with Tween-80
[3] = dose: 200.0 mg/kg/injection, schedule: Q01DX009 (ip), vehicle: saline with Tween-80
[4] = dose: 200.0 mg/kg/injection, schedule: Q04DX003 (ip), vehicle: saline with Tween-80
[5] = dose: 400.0 mg/kg/injection, schedule: Q04DX003 (ip), vehicle: saline with Tween-80
[6] = dose: 12.5 mg/kg/injection, schedule: Q01DX009 (ip), vehicle: saline with Tween-80
[7] = dose: 25.0 mg/kg/injection, schedule: Q01DX009 (ip), vehicle: saline with Tween-80
[8] = dose: 100.0 mg/kg/injection, schedule: Q04DX003 (ip), vehicle: Klucel (hydroxypropylcellulose) (HPC)
[9] = dose: 100.0 mg/kg/injection, schedule: Q01DX009 (ip), vehicle: saline
[10] = dose: 200.0 mg/kg/injection, schedule: Q01DX009 (ip), vehicle: saline
[11] = dose: 50.0 mg/kg/injection, schedule: Q01DX009 (ip), vehicle: saline with Tween-80

Measured: T/C

COC(OC)c1nc(SC)[nH]c(=O)c1C
inactive: [1] 88 % of control | [2] 105 % of control | [3] 89 % of control | [4] 116 % of control | dose: 400.0 mg/kg/injection, schedule: Q01DX009 (ip), vehicle: saline with Tween-80 88 % of control | [5] 112 % of control

c1ccc(Oc2ccccc2)cc1
inactive: [2] 105 % of control | [4] 101 % of control | [5] 97 % of control

CCOC(=O)CC(C)(O)C1CC1 (centres undefined)
inactive: [2] 98 % of control | [4] 96 % of control | [5] 98 % of control

NC(=O)N/N=C/C(c1ccccc1)c1ccccc1
inactive: [2] 96 % of control | [4] 94 % of control | [5] 103 % of control

CCOC(=O)NCC(CCN(C)CC)(c1cccc2ccccc12)C(C)C (centres undefined)
inactive: [6] 93 % of control | dose: 12.5 mg/kg/injection, schedule: Q04DX003 (ip), vehicle: saline with Tween-80 93 % of control | [7] 98 % of control | dose: 25.0 mg/kg/injection, schedule: Q04DX003 (ip), vehicle: saline with Tween-80 98 % of control | dose: 50.0 mg/kg/injection, schedule: Q04DX003 (ip), vehicle: saline with Tween-80 93 % of control

CN1C(=O)NC(C)(c2cccs2)C1=O (centres undefined)
inactive: [1] 112 % of control | [2] 99 % of control | [3] 113 % of control | [4] 106 % of control | [5] 97 % of control

CN(C)c1ccc(-c2nc3ccccc3s2)cc1
inactive: dose: 50.0 mg/kg/injection, schedule: Q04DX003 (ip), vehicle: Klucel (hydroxypropylcellulose) (HPC) 105 % of control | [8] 100 % of control | dose: 200.0 mg/kg/injection, schedule: Q04DX003 (ip), vehicle: Klucel (hydroxypropylcellulose) (HPC) 96 % of control

COc1ccc2c3c1OC1C(C)=CCC4C(C2)N(C)CCC314 (centres undefined)
inactive: dose: 75.0 mg/kg/injection, schedule: Q01DX001 (ip), vehicle: saline 101 % of control

CCOC(=O)C(=CN1CCCC1)C(=O)OCC
inactive: [9] 104 % of control | [2] 98 % of control | [10] 109 % of control | [4] 98 % of control | dose: 400.0 mg/kg/injection, schedule: Q01DX009 (ip), vehicle: saline 96 % of control | [5] 93 % of control

NC(Cc1ccc(O)c(I)c1)C(=O)O (centres undefined)
inactive: [9] 96 % of control | dose: 100.0 mg/kg/injection, schedule: Q04DX003 (ip), vehicle: saline 101 % of control | [10] 98 % of control | dose: 200.0 mg/kg/injection, schedule: Q04DX003 (ip), vehicle: saline 93 % of control | dose: 400.0 mg/kg/injection, schedule: Q04DX003 (ip), vehicle: saline 100 % of control

O=C(Nc1ccc(F)c([N+](=O)[O-])c1)Oc1cccnc1
inactive: [7] 97 % of control and 99 % of control | [11] 95 % of control and 96 % of control | dose: 100.0 mg/kg/injection, schedule: Q01DX001 (ip), vehicle: saline with Tween-80 108 % of control | dose: 100.0 mg/kg/injection, schedule: Q04DX002 (ip), vehicle: saline with Tween-80 95 % of control and 100 % of control | [2] 97 % of control | dose: 200.0 mg/kg/injection, schedule: Q01DX001 (ip), vehicle: saline with Tween-80 109 % of control | dose: 200.0 mg/kg/injection, schedule: Q04DX002 (ip), vehicle: saline with Tween-80 104 % of control and 109 % of control | [4] 100 % of control | dose: 400.0 mg/kg/injection, schedule: Q04DX002 (ip), vehicle: saline with Tween-80 102 % of control and 103 % of control

O=[N+]([O-])c1ccc(Cl)c(O)c1
inactive: dose: 25.0 mg/kg/injection, schedule: Q01DX009 (ip), vehicle: carboxymethylcellulose (CMC) 108 % of control | dose: 50.0 mg/kg/injection, schedule: Q01DX009 (ip), vehicle: carboxymethylcellulose (CMC) 106 % of control | dose: 100.0 mg/kg/injection, schedule: Q01DX009 (ip), vehicle: carboxymethylcellulose (CMC) 97 % of control

O=C(Nc1cccc(Cl)c1Cl)Oc1cccc2ccccc12
inactive: dose: 100.0 mg/kg/injection, schedule: Q04DX002 (ip), vehicle: Klucel (hydroxypropylcellulose) (HPC) 101 % of control | dose: 200.0 mg/kg/injection, schedule: Q04DX002 (ip), vehicle: Klucel (hydroxypropylcellulose) (HPC) 108 % of control | dose: 400.0 mg/kg/injection, schedule: Q04DX002 (ip), vehicle: Klucel (hydroxypropylcellulose) (HPC) 114 % of control

CN=C1N[N+]2=CCCCC2S1 (centres undefined)
inactive: dose: 25.0 mg/kg/injection, schedule: Q04DX002 (ip), vehicle: saline 86 % of control | dose: 40.0 mg/kg/injection, schedule: Q01DX009 (ip), vehicle: saline 95 % of control | dose: 50.0 mg/kg/injection, schedule: Q04DX002 (ip), vehicle: saline 111 % of control | dose: 60.0 mg/kg/injection, schedule: Q01DX009 (ip), vehicle: saline 104 % of control | dose: 80.0 mg/kg/injection, schedule: Q01DX009 (ip), vehicle: saline 107 % of control | dose: 100.0 mg/kg/injection, schedule: Q04DX002 (ip), vehicle: saline 99 % of control

COC(=O)c1c(C(=O)O)coc1C(=O)N1CCCC1
inactive: dose: 75.0 mg/kg/injection, schedule: Q04DX003 (ip), vehicle: Klucel (hydroxypropylcellulose) (HPC) 105 % of control | dose: 100.0 mg/kg/injection, schedule: Q01DX001 (ip), vehicle: Klucel (hydroxypropylcellulose) (HPC) 100 % of control | dose: 150.0 mg/kg/injection, schedule: Q04DX003 (ip), vehicle: Klucel (hydroxypropylcellulose) (HPC) 89 % of control | dose: 200.0 mg/kg/injection, schedule: Q01DX001 (ip), vehicle: Klucel (hydroxypropylcellulose) (HPC) 97 % of control | dose: 300.0 mg/kg/injection, schedule: Q04DX003 (ip), vehicle: Klucel (hydroxypropylcellulose) (HPC) 91 % of control | dose: 400.0 mg/kg/injection, schedule: Q01DX001 (ip), vehicle: Klucel (hydroxypropylcellulose) (HPC) 105 % of control

CC(C)=CC(=O)OC1C2C(C)C(=O)OC2C(O)C(C)C2C=CC(=O)C21C (centres undefined)
inactive: dose: 6.25 mg/kg/injection, schedule: Q01DX009 (ip), vehicle: saline with Tween-80 95 % of control | [6] 97 % of control | dose: 25.0 mg/kg/injection, schedule: Q01DX009 (ip), vehicle: Klucel (hydroxypropylcellulose) (HPC) 97 % of control | [7] 103 % of control | dose: 25.0 mg/kg/injection, schedule: Q01DX009 (ip), vehicle: saline 93 % of control | dose: 50.0 mg/kg/injection, schedule: Q01DX009 (ip), vehicle: Klucel (hydroxypropylcellulose) (HPC) 94 % of control | [11] 103 % of control | dose: 50.0 mg/kg/injection, schedule: Q01DX009 (ip), vehicle: saline 100 % of control

COc1cccc(C(=O)O)c1OS(=O)(=O)c1ccccc1
inactive: dose: 100.0 mg/kg/injection, schedule: Q01DX009 (ip), vehicle: Klucel (hydroxypropylcellulose) (HPC) 98 % of control | [8] 91 % of control | dose: 200.0 mg/kg/injection, schedule: Q01DX009 (ip), vehicle: Klucel (hydroxypropylcellulose) (HPC) 95 % of control | dose: 400.0 mg/kg/injection, schedule: Q01DX009 (ip), vehicle: Klucel (hydroxypropylcellulose) (HPC) 93 % of control | dose: 400.0 mg/kg/injection, schedule: Q04DX003 (ip), vehicle: Klucel (hydroxypropylcellulose) (HPC) 94 % of control

CN(C)CCCN1CCC2(CC[Si](C)(C)CC2)C1
inactive: dose: 100.0 mg/kg/injection, schedule: Q01DX001 (ip), vehicle: saline 94 % of control

COc1ccc(-n2c(=O)c(N=Nc3ccc(Cl)cc3)c(O)n(-c3ccccc3C)c2=S)cc1
inactive: dose: 37.5 mg/kg/injection, schedule: Q01DX001 (ip), vehicle: Klucel (hydroxypropylcellulose) (HPC) 96 % of control | dose: 75.0 mg/kg/injection, schedule: Q01DX001 (ip), vehicle: Klucel (hydroxypropylcellulose) (HPC) 90 % of control | dose: 150.0 mg/kg/injection, schedule: Q01DX001 (ip), vehicle: Klucel (hydroxypropylcellulose) (HPC) 92 % of control
